This experiment deals with V1 receptor (Rattus norvegicus, UniProt P30560). The experiment is described as follows: biochemical. It counts as binding.
V1 receptor, sequence (P30560 whole entry): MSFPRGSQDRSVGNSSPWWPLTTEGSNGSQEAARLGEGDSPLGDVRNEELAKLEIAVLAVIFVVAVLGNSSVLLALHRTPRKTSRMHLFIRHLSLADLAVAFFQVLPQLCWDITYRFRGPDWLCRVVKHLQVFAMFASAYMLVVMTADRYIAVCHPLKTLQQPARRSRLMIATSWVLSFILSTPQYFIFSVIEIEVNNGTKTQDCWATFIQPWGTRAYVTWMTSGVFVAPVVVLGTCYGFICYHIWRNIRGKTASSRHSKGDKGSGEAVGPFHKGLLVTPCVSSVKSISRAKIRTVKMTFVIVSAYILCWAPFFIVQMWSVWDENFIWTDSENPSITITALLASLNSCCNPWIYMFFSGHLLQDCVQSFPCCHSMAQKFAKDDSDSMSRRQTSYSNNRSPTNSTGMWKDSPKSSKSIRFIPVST
Protocol: Experiment 1: V1 receptor binding assay
Using rat liver plasma membrane preparations prepared according to Ichihara's method [cf: Akira Ichihara, J. Bio. Chem., 258 9283 (1983)], the plasma membrane (50000 dpm, 2×10^-10 M) of [H]^3 -Arg-vasopressin and a test compound (100 ng, 10^-7 -10^-4 M) are incubated at 37° C. for 10 minutes in 100 mM Tris-HCl buffer pH: 8.0 (250 μl) containing 5 mM MgCl2, 1 mM EDTA and 0.1% BSA. After incubation, the mixture is filtered three times using the glass filter (GF/F) so as to separate the membrane preparation combining with vasopressin and then washed with the buffer (5 ml). This glass filter is taken out and mixed with liquid scintillation cocktail. The amount of [H]^3 -vasopressin combining with the membrane is measured by liquid scintillation counter and the rate of the inhibitory effect of the test compound is estimated according to the following equation. [formula] C^1 : The amount of [H]^3 -vasopressin combining with the membrane in the presence of the test compound (known amount).
C^0 : The amount of [H]^3 -vasopressin combining with the membrane in the absence of the test compound.
B^1 : The amount of [H]^3 -vasopressin combining with the membrane in the presence of the excess amount of vasopressin (10^-6 M).
`O=C(c1ccc(OCCCCCCN2CCC(N3CCCCC3)CC2)cc1)N1CCC(N2C(=O)CCc3ccccc32)CC1` [Example 265, 1-(1-(4-[6-(4-(1-Piperidinyl)-1-piperidinyl)hexyloxy]benzoyl)-4-piperidinyl}-3,4-dihydrocarbostyril.dioxalate]: half-maximal inhibition (IC50) was put at 19 nM.

`CN(CCCCCCOc1ccc(C(=O)N2CCC(N3C(=O)CCc4ccccc43)CC2)cc1)CCc1ccccn1` [Example 266, 1-{1-(4-[6-(N-(2-(2-Pyridyl)ethyl)-N-methylamino)hexyloxy]benzoyl)-4-piperidinyl}-3,4-dihydrocarbostyril]: the midpoint of inhibition, the IC50, lay at 35 nM.

Regarding `COC1(CNCCCCCCOc2ccc(C(=O)N3CCC(N4C(=O)CCc5ccccc54)CC3)cc2)OCC(O)C(O)C1O` (stereo not drawn) [Example 267, 1-{1-(4-[6-(N-(2-Methoxy-3,4,5-trihydroxytetrahydropyran-2-yl)methylamino)hexyloxy]benzoyl)-4-piperidinyl}-3,4-dihydrocarbostyril], the midpoint of inhibition, the IC50, lay at 82 nM.

`CCN(CC)CCCCCCCOc1ccc(C(=O)N2CCC(N3C(=O)CCc4ccccc43)CC2)cc1` [Example 268, 1-{1-(4-[7-(Diethylamino)heptyloxy]benzoyl)-4-piperidinyl}-3,4-dihydrocarbostyril]: it took 27 nM to reach half-maximal inhibition (IC50).

In the case of `O=C(CCCCCOc1ccc(C(=O)N2CCC(N3C(=O)CCc4ccccc43)CC2)cc1)N1CCN(Cc2ccccc2)CC1` [Example 269, 1-{1-(4-[5-(4-Benzyl-1-piperazinylcarbonyl)pentyloxy]benzoyl)-4-piperidinyl}-3,4-dihydrocarbostyril], the IC50 (commonly the concentration at which inhibition is half-maximal) came to 160 nM.

Take `O=C(CCCCCOc1ccc(C(=O)N2CCC(N3C(=O)CCc4ccccc43)CC2)cc1)N1CCNCC1` [Example 270, 1-{1-(4-[5-(1-Piperazinylcarbonyl)pentyloxy]benzoyl)-4-piperidinyl}-3,4-dihydrocarbostyril]: the midpoint of inhibition, the IC50, lay at 44 nM.

`CC(=O)N1CCN(C(=O)CCCCCOc2ccc(C(=O)N3CCC(N4C(=O)CCc5ccccc54)CC3)cc2)CC1` [Example 271, 1-{1-(4-[5-(4-Acetyl-1-piperazinylcarbonyl)pentyloxy]benzoyl)-4-piperidinyl}-3,4-dihydrocarbostyril] registered an IC50 of 42 nM.

Molecule `CN1CCN(C(=O)CCCCCOc2ccc(C(=O)N3CCC(N4C(=O)CCc5ccccc54)CC3)cc2)CC1` [Example 272, 1-{1-(4-[5-(4-Methyl-1-piperazinylcarbonyl)pentyloxy]benzoyl)-4-piperidinyl}-3,4-dihydrocarbostyril] displayed an IC50 of 38 nM.

For `C=CCN1CCN(C(=O)CCCCCOc2ccc(C(=O)N3CCC(N4C(=O)CCc5ccccc54)CC3)cc2)CC1` [Example 273, 1-{1-(4-[5-(4-Allyl-1-piperazinylcarbonyl)pentyloxy]benzoyl)-4-piperidinyl}-3,4-dihydrocarbostyril], the IC50 was determined as 57 nM.

`O=C(O)C1CCN(C(=O)CCCCCOc2ccc(C(=O)N3CCC(N4C(=O)CCc5ccccc54)CC3)cc2)CC1` [Example 274, 1-{1-(4-[5-(4-Carboxy-1-piperidinylcabonyl)pentyloxy]benzoyl)-4-piperidinyl}-3,4-dihydrocarbostyril] registered an IC50 of 490 nM.

In turn, `NC(=O)C1CCN(C(=O)CCCCCOc2ccc(C(=O)N3CCC(N4C(=O)CCc5ccccc54)CC3)cc2)CC1` [Example 275, 1-{1-(4-[5-(4-Carbamoyl-1-piperidinylcarbonyl)pentyloxy]benzoyl)-4-piperidinyl}-3,4-dihydrocarbostyril] had an IC50 of 46 nM.

On to `CN(C)C(=O)C1CCN(C(=O)CCCCCOc2ccc(C(=O)N3CCC(N4C(=O)CCc5ccccc54)CC3)cc2)CC1` [Example 276, 1-{1-(4-[5-(4-Dimethylaminocarbonyl-1-piperidinylcarbonyl)pentyloxy]benzoyl)-4-piperidinyl}-3,4-dihydrocarbostyril], for which the IC50 is 110 nM.

Molecule `Cn1ccnc1SCCCCCOc1ccc(C(=O)N2CCC(N3C(=O)CCc4ccccc43)CC2)cc1` [Example 278, 1-{1-(4-[5-(1-Methyl-2-imidazolylthio)pentyloxy]benzoyl)-4-piperidinyl}-3,4-dihydrocarbostyril] gave an IC50 of 110 nM.

As to `O=C(c1ccc(OCCCCCSc2ncccn2)cc1)N1CCC(N2C(=O)CCc3ccccc32)CC1` [Example 279, 1-{1-(4-[5-(2-Pyrimidylthio)pentyloxy]benzoyl)-4-piperidinyl}-3,4-dihydrocarbostyril], the IC50 was determined as 180 nM.

On to `O=C(c1ccc(OCCCCC[S+]([O-])c2ncccn2)cc1)N1CCC(N2C(=O)CCc3ccccc32)CC1` (stereo not drawn) [Example 280, 1-{1-(4-[5-(2-Pyrimidylsufinyl)pentyloxy]benzoyl)-4-piperidinyl}-3,4-dihydrocarbostyril], for which the IC50 is 87 nM.

`O=C(c1ccc(OCCCCCS(=O)(=O)c2ncccn2)cc1)N1CCC(N2C(=O)CCc3ccccc32)CC1` [Example 281, 1-(1-(4-[5-(2-Pyrimidylsulfonyl)pentyloxy]benzoyl)-4-piperidinyl}-3,4-dihydrocarbostyril] came in with a 50% inhibitory concentration (IC50) of 54 nM.

On to `Cn1ccnc1S(=O)(=O)CCCCCOc1ccc(C(=O)N2CCC(N3C(=O)CCc4ccccc43)CC2)cc1` [Example 282, 1-{1-(4-[5-(1-Methyl-2-imidazolylsulfonyl)pentyloxy)benzoyl)-4-piperidinyl}-3,4-dihydrocarbostyril], for which the IC50 was 75 nM.

On to `O=C(c1ccc(OCCCCCSc2ccncc2)cc1)N1CCC(N2C(=O)CCc3ccccc32)CC1` [Example 283, 1-{1-(4-[5-(4-Pyridylthio)pentyloxy]benzoyl)-4-piperidinyl}-3,4-dihydrocarbostyril], for which the IC50 worked out at 610 nM.

`Nc1ccc(SCCCCCOc2ccc(C(=O)N3CCC(N4C(=O)CCc5ccccc54)CC3)cc2)cc1` [Example 284, 1-{1-(4-[5-(4-Aminophenylthio)pentyloxy]benzoyl)-4-piperidinyl}-3,4-dihydrocarbostyril] returned an IC50 of 400 nM.

In the case of `O=C(c1ccc(OCCCCCS(=O)(=O)c2ccc([N+](=O)[O-])cc2)cc1)N1CCC(N2C(=O)CCc3ccccc32)CC1` [Example 285, 1-{1-(4-[5-(4-Nitrophenylsulfonyl)pentyloxy]benzoyl)-4-piperidinyl}-3,4-dihydrocarbostyril], inhibition was half-maximal at 230 nM (IC50).

For `Nc1ccc(S(=O)(=O)CCCCCOc2ccc(C(=O)N3CCC(N4C(=O)CCc5ccccc54)CC3)cc2)cc1` [Example 286, 1-{1-(4-[5-(4-Aminophenylsulfonyl)pentyloxy]benzoyl)-4-piperidinyl}-3,4-dihydrocarbostyril], the IC50 came out at 150 nM.

In turn, `O=C(c1ccc(OCCCCCS(=O)(=O)c2ccccn2)cc1)N1CCC(N2C(=O)CCc3ccccc32)CC1` [Example 287, 1-{1-(4-[5-(2-Pyridylsulfonyl)pentyloxy]benzoyl)-4-piperidinyl}-3,4-dihydrocarbostyril] had an IC50 of 100 nM.

For `O=C(c1ccc(OCCCCCS(=O)(=O)c2cc[n+]([O-])cc2)cc1)N1CCC(N2C(=O)CCc3ccccc32)CC1` [Example 288, 1-{1-(4-[5-(Pyridine-N-oxide-4-ylsulfonyl)pentyloxy]benzoyl)-4-piperidinyl}-3,4-dihydrocarbostyril], half-maximal inhibition (IC50) was put at 48 nM.

`CC(=O)Nc1ccc(S(=O)(=O)CCCCCOc2ccc(C(=O)N3CCC(N4C(=O)CCc5ccccc54)CC3)cc2)cc1` [Example 289, 1-{1-(4-[5-(4-Acetylaminophenylsulfonyl)pentyloxy]benzoyl)-4-piperidinyl}-3,4-dihydrocarbostyril] registered an IC50 of 100 nM.

For `O=C(c1ccc(OCCCCCN2CCCC2)cc1OCCCCCN1CCCC1)N1CCC(N2C(=O)CCc3ccccc32)CC1` [Example 291], the IC50 amounted to 98 nM.

As to `CCN(CC)CCCCCOc1ccc(C(=O)N2CCC(N3C(=O)CCc4ccccc43)CC2)c(OCCCCCN(CC)CC)c1` [Example 292, 1-{1-[2,4-Di(5-diethylaminopentyloxy]benzoyl)-4-piperidinyl}-3,4-dihydrocarbostyril], half-maximal inhibition (IC50) required 77 nM.

`COc1cc(OCCCCC(=O)N2CCSCC2)ccc1C(=O)N1CCC(N2C(=O)CCc3ccccc32)CC1` [Example 293, 1-{1-[2-Methoxy-4-(4-thiomorpholinocarbonylbutyloxy)benzoyl]-4-piperidinyl}-3,4-dihydrocarbostyril] came in with an IC50 of 220 nM.

`COc1cc(OCCCCC(N)=O)ccc1C(=O)N1CCC(N2C(=O)CCc3ccccc32)CC1` [Example 294, 1-{1-[2-Methoxy-4-(4-carbamoylbutoxy)benzoyl]-4-piperidinyl}-3,4-dihydrocarbostyril] had an IC50 of 170 nM.

`COc1cc(OCCCCC(=O)N2CC[S+]([O-])CC2)ccc1C(=O)N1CCC(N2C(=O)CCc3ccccc32)CC1` [Example 295, 1-{1-(2-Methoxy-4-[4-(4-oxothiomorpholino)carbonylbutyloxy)benzoyl]-4-piperidinyl}-3,4-dihydrocarbostyril] returned an IC50 of 77 nM.

`COc1cc(OCCCCC(=O)N2CCS(=O)(=O)CC2)ccc1C(=O)N1CCC(N2C(=O)CCc3ccccc32)CC1` [Example 296, 1-{1-(2-Methoxy-4-[4-(4,4-dioxothiomorpholino)carbonylbutyloxy]benzoyl]-4-piperidinyl}-3,4-dihydrocarbostyril] showed an IC50 of 73 nM.

`COc1cccc(CNCC(O)CCCCOc2ccc(C(=O)N3CCC(N4C(=O)CCc5ccccc54)CC3)cc2)c1` (stereo not drawn) [Example 298, 1-{1-(4-[5-Hydroxy-6-(3-methoxybenzylamino)hexyloxy]benzoyl)-4-piperidinyl}-3,4-dihydrocarbostyril]: 65 nM corresponded to half-maximal inhibition (IC50).

In the case of `COc1ccc(CNCC(O)CCCCOc2ccc(C(=O)N3CCC(N4C(=O)CCc5ccccc54)CC3)cc2)cc1OC` (stereo not drawn) [Example 299, 1-{1-(4-[5-Hydroxy-6-(3,4-dimethoxybenzylamino)hexyloxy]benzoyl)-4-piperidinyl}-3,4-dihydrocarbostyril.oxalate], it took 65 nM to reach half-maximal inhibition (IC50).

`CN(CCc1ccccn1)CC(O)CCCCOc1ccc(C(=O)N2CCC(N3C(=O)CCc4ccccc43)CC2)cc1` (stereo not drawn) [Example 300, 1-{1-(4-[5-Hydroxy-6-(N-methyl-N-(2-(2-pyridyl)ethyl)amino)hexyloxy]benzoyl]-4-piperidinyl}-3,4-dihydrocarbostyril]: the IC50 stood at 34 nM.

(Values after US5436254A, “Carbostyril derivatives” (Otsuka Pharmaceutical Company, Ltd., priority 1989, dated 1995).)
